Tests used:
Leukemia subpanel = test: NCI-60 five-dose assay, leukemia subpanel; format: cell-based; conditions: Homo sapiens, 48 h; for GI50: read-out: Mean GI50 Leukemia; for CC50: read-out: Mean LC50 Leukemia
Method: (§1) All the compounds were selected for further testing since they fulfilled the set NCI one‐dose screening parameters for threshold inhibition. They were tested at five different concentrations (0.01, 0.1, 1, 10, and 100 μM) for 48 h against the same cell line panel and the dose–response curves along with three response parameters (50% growth inhibitory concentration [GI50], the 50% lethal concentration [LC50], and the total growth inhibition [TGI]) were calculated for every cancer cell line. The full reported data and corresponding graphs are compiled in Supporting Information S1. Average values of GI50, TGI, and LC50 values of all the reported selenoesters in all the subpanels are represented in Figure 4.
(§2) All the reported selenoesters (1–6) were submitted to the DTP of NCI. First, they were screened at a single dose (10^−5 M) against a panel of 60 cancer cell lines derived from different tumor types following the methodology available (https://dtp.cancer.gov/discovery_development/nci-60/methodology.htm). As all the compounds satisfied the threshold inhibition criteria established, they were further assessed at five concentrations (0.01, 0.1, 1, 10, and 100 µM) against the same cell panel to obtain their corresponding dose–response curves and three antitumor parameters (GI50, TGI, and LC50) by regression. GraphPad Prism 7.0 Software was used to represent the corresponding graphs.

hCA XII = target: T1, hCA XII (Homo sapiens, UniProt O43570); test: hCA XII inhibition, stopped-flow CO2 hydration assay; format: biochemical; conditions: stopped flow technique, mean from three assays
T1 construct: made in house
T1 sequence (O43570 25-354): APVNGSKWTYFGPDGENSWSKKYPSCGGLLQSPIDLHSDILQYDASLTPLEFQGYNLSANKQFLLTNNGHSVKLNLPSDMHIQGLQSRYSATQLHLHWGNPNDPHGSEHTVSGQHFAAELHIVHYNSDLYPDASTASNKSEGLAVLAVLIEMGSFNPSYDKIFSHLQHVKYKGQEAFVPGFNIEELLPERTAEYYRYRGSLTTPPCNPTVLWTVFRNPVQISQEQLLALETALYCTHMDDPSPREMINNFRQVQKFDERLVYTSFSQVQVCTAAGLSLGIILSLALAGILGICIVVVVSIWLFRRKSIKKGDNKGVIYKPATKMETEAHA
Method: An Applied Photophysics stopped‐flow instrument was used to assay the CA‐catalyzed CO2 hydration activity [52]. […] The uncatalyzed rates were determined in the same manner and subtracted from the total observed rates. Stock solutions of the inhibitor (0.1 mM) were prepared in distilled–deionized water, and dilutions up to 0.01 nM were done thereafter with the assay buffer. Inhibitor and enzyme solutions were preincubated together for 15 min at room temperature before the assay, to allow for the formation of the E–I complex. The inhibition constants were obtained by Nonlinear least‐squares methods using PRISM 3 and the Cheng‐Prusoff equation as reported earlier and represent the mean from at least three different determinations. All CA isoforms were recombinant proteins obtained in‐house, as reported earlier [54, 55, 56].

OVCAR‐5 = test: NCI-60 one-dose screen, OVCAR-5; format: cell-based, human; conditions: 10 µM, 48 h
Method: (§3) To explore the potential antiproliferative properties of the newly synthesized derivatives, they were submitted to the National Cancer Institute's (NCI) Developmental Therapeutics Program (DTP) for screening at 10 μM in a panel of approximately 60 human cancer cell lines from different cancer types. The results are reported as the growth percentage (GP), which is the growth of the treated cells with each compound for 48 h compared to the untreated controls (Figure 2). […] The initial screening results are summarized in Figure 2, and the mean GP values of each subpanel are depicted in Figure 3. The full reports are compiled in the Supplementary Section.
as §2

[1] = tested on: breast cancer cell line HS 578 T; test: NCI-60 five-dose assay, HS 578 T; format: cell-based, human; conditions: 48 h; for GI50: Homo sapiens, Hs-578T
Method: as §1, §2

Melanoma subpanel = test: NCI-60 five-dose assay, melanoma subpanel; format: cell-based; conditions: Homo sapiens, 48 h; for GI50: read-out: Mean GI50 Melanoma; for LC50 (50% lethal concentration): read-out: Mean LC50 Melanoma
Method: as §1, §2

Ovarian subpanel = test: NCI-60 one-dose screen, ovarian subpanel; format: cell-based, human; conditions: 10 µM, 48 h
Method: as §3, §2

[2] = tested on: A498 renal‐resistant cells; test: NCI-60 five-dose assay, A498; format: cell-based; conditions: Homo sapiens, 48 h
Method: as §1, §2

[3] = tested on: OVCAR‐5 ovarian cancer cells; test: NCI-60 five-dose assay, OVCAR-5; format: cell-based, human; conditions: 48 h
Method: as §1, §2

[4] = tested on: HT29 colon cancer cell line; test: NCI-60 one-dose screen, HT29; format: cell-based, human; conditions: 10 µM, 48 h
Method: as §3, §2

THP‐1 cells = test: THP-1 cytotoxicity (MTT, PMA-differentiated macrophages); format: cell-based, human; conditions: 48 h, mean ± SD
Method: The synthesized compounds were tested for their antileishmanial activity against promastigotes of L. major and L. infantum at four concentrations (1, 10, 50, and 100 µM) for 48 h using the 3‐(4,5‐dimethylthiazol‐2‐yl)‐2,5‐diphenyltetrazolium bromide (MTT) assay. In this evaluation, the activity was expressed in IC50 (concentration inhibiting the parasite growth by 50%). […] The CC50 was defined as the concentration of selenoesters that led to a reduction in the viability of the macrophages, such that only 50% of the cells survived when compared to the control group. This cell line, derived from the blood of a human with acute monocytic leukemia, was chosen as it has been widely reported that it resembles tissue macrophages to various extents as well as supports the infection by numerous Leishmania promastigotes. The selectivity indexes (SIs) were calculated as the ratio between toxicity on macrophages (THP‐1 cells)/antileishmanial activity. The data for standard control drugs (miltefosine and paromomycin) are included for comparison purposes.
THP‐1 cells were seeded at a concentration of 8 × 10^4 cells per well in 96‐well plates and incubated with phorbol 12‐myristate 13‐acetate (PMA) (50 ng/mL) for 72 h (37°C and 5% CO2) to differentiate them into macrophages. After that, the culture medium was removed and the cells were treated with the reported selenoesters at different increasing concentrations ranging from 1 to 200 µM for 48 h at 37°C and 5% of CO2. Macrophages treated with DMSO (1%) were used as controls, and the compounds were dissolved in DMSO at a stock concentration of 10^−2 M. Afterward, the MTT assay was performed. Data were obtained from three independent experiments performed in triplicate. The absorbance was measured at 550 nm using a MultiskanEX photometric plate reader for microplates. The CC50 values were calculated using OriginPro 8.5.1. software by nonlinear curve fitting. SIs were calculated as the ratio of the CC50 values determined for the macrophages and the IC50 values obtained in each Leishmania promastigote. GraphPad Prism 7.0 Software was used to obtain the corresponding graphs.

HL‐60(TB) cells = test: NCI-60 one-dose screen, HL-60(TB); format: cell-based, human; conditions: 10 µM, 48 h
Method: as §3, §2

MALME‐3M = test: NCI-60 five-dose assay, MALME-3M; format: cell-based; conditions: Homo sapiens, 48 h
Method: as §1, §2

HOP‐62 = test: NCI-60 five-dose assay, HOP-62; format: cell-based; conditions: Homo sapiens, 48 h
Method: as §1, §2

Structure (SMILES)	GI50 (Leukemia subpanel) [µM]	CC50 (Leukemia subpanel) [µM]	Ki (hCA XII) [µM]	behaviour in OVCAR‐5 (OVCAR‐5)	GI50 [1] [µM]	GI50 (Melanoma subpanel) [µM]	LC50 (50% lethal concentration) (Melanoma subpanel) [µM]	average growth cell value, Ovarian (Ovarian subpanel) [%]	GI50 [2] [µM]	cytotoxicity against OVCAR‐5 [3]	behaviour in HT29 [4]	CC50 (THP‐1 cells) [µM]	behaviour in HL‐60(TB) (HL‐60(TB) cells)	GI50 (MALME‐3M) [µM]	GI50 (HOP‐62) [µM]	TGI HS 578 T [1] [µM]
N#Cc1ccc(NC(=O)C[Se]C(=O)c2ccccc2)cc1C(F)(F)F [Compound 1, Se‐(2‐((4‐cyano‐3‐(trifluoromethyl)phenyl)amino)‐2‐oxoethyl)benzoselenoate]	1.01	4.36	51.1	cytotoxic activity	0.64	1.36	5.49	-92.77	0.89							
O=C(C[Se]C(=O)c1ccco1)Nc1ccc([N+](=O)[O-])c(C(F)(F)F)c1 [Compound 5, Se‐(2‐((4‐nitro‐3‐(trifluoromethyl)phenyl)amino)‐2‐oxoethyl)furan‐2‐carboselenoate]	2.51	> 100	72.6	cytotoxic activity		1.7		-38.57		remarkable cytotoxicity						
O=C(C[Se]C(=O)c1ccccc1)Nc1cccc(OC(F)(F)F)c1 [Compound 3, Se‐(2‐oxo‐2‐((3‐(trifluoromethoxy)phenyl)amino)ethyl)benzoselenoate]	3.06	19.6	17.4	cytostatic behavior		2.33	13.6	-50.78			potent cytotoxic activity	> 200				
O=C(C[Se]C(=O)c1ccco1)Nc1cccc(OC(F)(F)F)c1 [Compound 6, Se‐(2‐oxo‐2‐((3‐(trifluoromethoxy)phenyl)amino)ethyl)furan‐2‐carboselenoate]	6.45	> 100	9.6	cytostatic behavior		4.95		5.95					cytotoxic behavior			
O=C(C[Se]C(=O)c1ccccc1)Nc1ccc([N+](=O)[O-])c(C(F)(F)F)c1 [Compound 2, Se‐(2‐((4‐nitro‐3‐(trifluoromethyl)phenyl)amino)‐2‐oxoethyl)benzoselenoate]	0.9	4.34	91.5	cytotoxic activity	0.28	1.24	5.37	-92.98	0.8					0.83	0.86	0.89

— PMC12676205, “New Se‐Compounds With Antileishmanial, Antitumor, and Carbonic Anhydrase Inhibitory Properties” (Archiv Der Pharmazie, 2025)
